These are literature values, as cited in paper PMC12348585, “Semi-Synthesis, Anti-Leukemia Activity, and Docking Study of Derivatives from 3α,24-Dihydroxylup-20(29)-en-28-Oic Acid” (Molecules, 2025).

Data set [1] deals with normal peripheral blood lymphocytes (PBLs). Conditions: cited from earlier work.
For a further data set, the system named is JURKAT cells. Conditions: read-out: IC50 in JURKAT cells; cited from earlier work.
The test system of another data set is K562 cells. Further details: method as in PMID 32178533. Conditions: cited from earlier work.

For orientation: IC50 means the midpoint of a concentration-inhibition curve. In the case of `C=C(C=O)[C@@H]1CC[C@]2(C)CC[C@]3(C)[C@H](CC[C@@H]4[C@@]5(C)CC[C@H](O)C(C)(C)[C@@H]5CC[C@]43C)[C@@H]12` [3β-hydroxylup-20(29)-en-30-al], in data set [1], the “reduction of viability of normal peripheral blood lymphocytes (PBLs)” value is recorded as 32.17%. Also, the values for the IC50 with JURKAT cells and in the data set on K562 cells were 11.7 ± 1.06 µM and 19.5 ± 0.47 µM, respectively.
